# From patent US12036201B2, “Combination of a ubiquitin-conjugating enzyme complex inhibitor and antihypertensive and/or hypoglycemic drugs in diabetic kidney disease” (UNIVERSITÀ DEGLI STUDI DI BARI ALDO MORO, priority 2018, dated 2024)
# Entries after “also recorded” stand apart in the source; their conditions may differ.
# Key:
# [1] = tested on: diabetic mice (STZ); test: Sirius Red/Fast Green staining of tubular-interstitial fibrosis in kidney; assay type: in vivo, mice (DBA/2J)
# Experimental: Tissue samples were obtained from kidneys of DBA/2J mice following sacrifice. Tissue was fixed in 4% formaldehyde. Following dewaxing and hydration, sections were incubated with Bouin's solution overnight at ambient temperature. Sections were then rinsed using running tap water to remove all the fixative residues and incubated 1 h at ambient temperature with the Sirius Red/Fast Green dye combination 1:1.
# The animal model employed is the murine model DBA/2J. 8-weeks-old mice received daily intraperitoneal injections for five consecutive days of either sodium citrate (females, control group) or streptozotocin (STZ, 45 mg/kg, pH4.5, dissolved in sodium citrate) for the study group (males). Only those animals showing a blood glucose level above 250 mg/dl were included in this study. Five weeks following the last STZ injection, animals were treated with NSC697923 dissolved in PBS (3 mg/kg, 3 times a week for 6 weeks) and/or RAMIPRIL (2 mg/kg, 3 times a week for 6 weeks) dissolved in DMSO 2% either alone or in combination [NSC697923 (3 mg/kg)+RAMIPRIL (2 mg/kg) 3 times a week for 6 weeks]. […]
# (§1) Lysine 63 ubiquitinated proteins accumulation has been evaluated by immunohistochemistry on renal tissues from the mice model of diabetic nephropathy (DBA/2J mice+streptozotocin-STZ); the degree of fibrosis in these samples has been evaluated by Sirius Red Fast Green staining.
# [2] = tested on: α-sma expression in HK2 cells; test: Western blotting of α-sma in HK2 cells under high glucose; assay type: cell-based, human; settings: Example 3, FIG. 3, high glucose 30 mM, NSC697923 1 μM, Ramipril 10 μM
# Experimental: (§2) HK2 cells, a line of Renal Proximal Tubule Epithelial Cells (PTEC) obtained from a human control kidney, were purchased from the American Type Culture Collection (ATCC, Rockville, MD). Cells were cultured in DMEM growth medium low glucose (5.5 mM) with the addition of 10% fetal bovine serum (FBS), 1% Penicillin and Streptomycin and 1% L-Glutamine (Sigma-Aldrich, Munich, Germany). Prior to each passage, cells reaching confluence were rinsed with phosphate-buffered saline (PBS), trypsinized with Trypsin 0.05% and Ethylenediaminetetraacetic acid (EDTA) 0.02% in PBS and seeded in complete growth medium with or without the addition of D-Glucose 24.5 mM (final concentration in hyperglycemia HG=30 mM) or L-Glucose 24.5 mM as osmolarity control, for each predetermined time point. Cells were then incubated at 37° C. in 5% CO2.
# Cells were plated in six-well plates and incubated to reach confluence. Cells were then exposed to either D- or L-Glucose at a concentration of 30 mM for the indicated time point. […]
# By western blotting on cultured immortalized renal tubular cells (HK2) we evaluated the protein expression levels of α-sma, a marker of epithelial-to-mesenchymal transition.
# [3] = Clinical data of DBA/2J mice (controls and STZ diabetic): body weight, kidney weight, blood glucose, urinary volume; assay type: in vivo, mice (DBA/2J); design: Blood glucose at sacrifice: unit: mg/dl; settings: for Kidney Weight: in g (unit assumed)
# Experimental: The animal model employed is the murine model DBA/2J. 8-weeks-old mice received daily intraperitoneal injections for five consecutive days of either sodium citrate (females, control group) or streptozotocin (STZ, 45 mg/kg, pH4.5, dissolved in sodium citrate) for the study group (males). Only those animals showing a blood glucose level above 250 mg/dl were included in this study. Five weeks following the last STZ injection, animals were treated with NSC697923 dissolved in PBS (3 mg/kg, 3 times a week for 6 weeks) and/or […] (2 mg/kg, 3 times a week for 6 weeks) dissolved in DMSO 2% either alone or in combination [NSC697923 (3 mg/kg)+[…] (2 mg/kg) 3 times a week for 6 weeks]. Serum and 24 h urine samples were collected at the end of the treatment. Kidney samples were collected at sacrifice and immediately fixed in formalin and embedded in paraffin.
# [4] = tested on: α-sma expression in HK2 cells; test: Immunofluorescence/confocal microscopy of α-sma in HK2 cells under high glucose; assay type: cell-based, human; settings: NSC697923 1 μM
# Experimental: as §2
# (§3) The cellular distribution of the proteins showing lysine63-linked ubiquitylation and the expression of the mesenchymal marker α-sma was evaluated in HK2 cells through indirect immunofluorescence and confocal microscopy analysis following incubation with specific antibodies. For each condition, 150.000 cells were plated on sterile glass slides and then incubated with D- or L-Glucose 30 mM for the indicated time point. In some predetermined conditions, the specific inhibitor of Lysine63-linked ubiquitylation, NSC697923, was pre-incubated at a 1 μM final concentration, 1 h prior to the addition of glucose and/or the ACE-inhibitor Ramipril at a final concentration of 10 μM and/or the SGLT2 inhibitor Empaglifozin at a 500 nM final concentration. Following stimulation, HK2 were fixed 15 min in paraformaldehyde 4%, treated 5 min with Triton-X 100 0.1% in PBS, and incubated 1 h in blocking buffer (goat serum 4%+BSA 2%). Cells were then incubated 1 h with the specific antibodies against α-sma and lysine63 ubiquitin diluted in blocking buffer. The antigen-antibody complex was then identified using a secondary fluorescent antibody (specifically Alexa Fluor 555 goat anti-rabbit and Alexa Fluor 488 goat anti-mouse). Prior to the incubation with the secondary antibody, cells were rinsed three times in PBS. Cells nuclei were then stained using TO-PRO-3 diluted in PBS and slides were mounted. The negative control was obtained incubating cells in blocking without the addition of the primary antibody. The fluorescence signal was then acquired using the Leica TCS SP2 confocal microscope and images were saved at a 63× zoom using the microscope software. Signal was finally quantified measuring the area % of fluorescent signal compared to the background.
# [5] = tested on: diabetic mice (STZ); test: Urinary albumin analysis (Mouse Albumin ELISA Kit) in 24 h urine; assay type: in vivo, mice (DBA/2J); settings: for ug urine albumin 24 h: 24 h urine
# Experimental: The animal model employed is the murine model DBA/2J. 8-weeks-old mice received daily intraperitoneal injections for five consecutive days of either sodium citrate (females, control group) or streptozotocin (STZ, 45 mg/kg, pH4.5, dissolved in sodium citrate) for the study group (males). Only those animals showing a blood glucose level above 250 mg/dl were included in this study. Five weeks following the last STZ injection, animals were treated with NSC697923 dissolved in PBS (3 mg/kg, 3 times a week for 6 weeks) and/or RAMIPRIL (2 mg/kg, 3 times a week for 6 weeks) dissolved in DMSO 2% either alone or in combination [NSC697923 (3 mg/kg)+RAMIPRIL (2 mg/kg) 3 times a week for 6 weeks]. Serum and 24 h urine samples were collected at the end of the treatment. Kidney samples were collected at sacrifice and immediately fixed in formalin and embedded in paraffin.
# Urinary albumin concentration was measured in the urine of these animals using the commercially available Mouse Albumin ELISA Kit (Abcam). The urinary albumin values were normalized to the total urinary protein content compared to the total volume of urines produced during the 24 h before sacrifice.
# [6] = tested on: Lysine 63 ubiquitinated proteins (Lys63-Ub); test: Immunohistochemistry of lysine 63 ubiquitinated proteins on renal tissue; assay type: in vivo, mice (DBA/2J); settings: diabetic mice (STZ)
# Experimental: Tissue samples were obtained from kidney of DBA/2J mice. Following sacrifice, tissues were fixed in 4% formaldehyde. In order to evaluate the accumulation of proteins undergoing Lysisine63-linked ubiquitylation through immunohistochemistry, dewaxed and unmasked sections were incubated 10 min in H2O2 and 5 min in Triton 0.25% at ambient temperature. Sections were then blocked 10 min with Protein block (Dako, Glostrup, Denmark) and then incubated 1 h with the specific antibody against and lysine63-linked ubiquitylation. […] Sections were stained with hematoxylin and slides were mounted with glycerol. The negative control sample lacks the primary antibody incubation step. The signal is then quantified using the Positive Pixel Count v9_v10.0.0.1805 algorithm (Aperio Technologies) that measures the number of […].
# The animal model employed is the murine model DBA/2J. […]
# as §1
# [7] = tested on: Lysine 63 ubiquitinated proteins in HK2 cells; test: Immunofluorescence/confocal microscopy of lysine 63 ubiquitinated proteins in HK2 cells under high glucose; assay type: cell-based, human; settings: high glucose 30 mM, NSC697923 1 μM
# Experimental: as §2, §3
# [8] = tested on: immortalized human renal tubular cells HK2; settings: in vitro cellular model of HK2 cells; Pontrelli et al. FASEB J 2017; cited from earlier work
# [9] = Example 6, FIG. 6, compared to untreated diabetic mice or mice treated with ACE inhibitors alone
# [10] = Table 1, diabetic (STZ) DBA/2J mice, NSC697923 3 mg/kg 3 times a week for 6 weeks
# [11] = Table 1, non-diabetic DBA/2J mice, NSC697923 3 mg/kg 3 times a week for 6 weeks
# [12] = Table 2, diabetic (STZ) DBA/2J mice, NSC697923 3 mg/kg and/or Ramipril 2 mg/kg 3 times a week for 6 weeks
# [13] = Example 8, FIG. 8a, high glucose 30 mM, Empaglifozin 500 nM
# [14] = Example 4, FIG. 4b, Ramipril 10 μM
# [15] = Example 8, FIG. 8b, Empaglifozin 500 nM
# [16] = Table 2, non-diabetic DBA/2J mice, NSC697923 3 mg/kg and/or Ramipril 2 mg/kg 3 times a week for 6 weeks
compound,measurement,setting,value
"Cc1ccc(S(=O)(=O)c2ccc([N+](=O)[O-])o2)cc1 [NSC697923, 2-(4-methylphenyl)sulfonyl-5-nitrofuran]",degree of tubular-interstitial fibrosis (Sirius Red Fast Green),"[1]; Example 1, FIGS. 1 and 2, NSC697923 3 mg/kg 3 times a week for 6 weeks, vs untreated STZ, 3 mg/kg",significantly reduces; also recorded: capable of reducing
same,degree of fibrosis (Sirius Red Fast Green),[1]; [9],significant reduction
same,"α-sma expression (western blotting, normalized to actin)",[2],reduced
same,Blood glucose at sacrifice,[3]; [10],540.5 ± 33.05
same,Urinary Volume (mL/24 h),[3]; [10],25.83 ± 12.58 mL/24 h
same,Kidney Weight,[3]; [10],0.33 ± 0.079
same,Blood glucose at sacrifice,[3]; [11],118.8 ± 10.44
same,Urinary Volume (mL/24 h),[3]; [11],0.33 ± 0.17 mL/24 h
same,Kidney Weight,[3]; [11],0.24 ± 0.018
same,Blood glucose at sacrifice,[3]; [12],594.28 ± 7.95
same,Urinary Volume (mL/24 h),[3]; [12],24.85 ± 7.78 mL/24 h
same,Kidney Weight,[3]; [12],0.38 ± 0.05
same,α-sma expression (confocal microscopy),[4]; [13],reduces both processes
same,α-sma expression (confocal microscopy),"[4]; Examples 4 and 5, FIGS. 4a and 5, high glucose 30 mM, Ramipril 10 μM",reduces both processes; also recorded: able to inhibit
same,effect on urinary albuminuria,"[5]; Example 2, first group of animals, treated diabetic mice (STZ+NSC697923) compared to untreated diabetic mice (STZ)",has no effect; also recorded: not able to reduce
same,ug urine albumin 24 h,[5]; [10],724.25 ± 690.89 µg
same,ug urine albumin 24 h,[5]; [12],439.29 ± 211.2 µg
same,accumulation of lysine 63 ubiquitinated proteins in kidney,"[6]; Example 1, FIG. 1, NSC697923 3 mg/kg 3 times a week for 6 weeks, vs untreated STZ",significantly reduces
same,accumulation of lysine 63 ubiquitinated proteins in kidney,[6]; [9],significant reduction
same,accumulation of lysine 63 ubiquitinated proteins (confocal microscopy),[7]; [14],reduces both processes
same,accumulation of lysine 63 ubiquitinated proteins (confocal microscopy),[7]; [15],reduces both processes
same,epithelial to mesenchymal transition,[8],blocks
"CCOC(=O)[C@H](CCc1ccccc1)N[C@@H](C)C(=O)N1[C@H](C(=O)O)C[C@@H]2CCC[C@@H]21 [RAMIPRIL, Ramipril]","α-sma expression (western blotting, normalized to actin)",[2],have no effect
same,Blood glucose at sacrifice,[3]; [12],555.71 ± 71.48
same,Urinary Volume (mL/24 h),[3]; [12],29.64 ± 9.51 mL/24 h
same,Kidney Weight,[3]; [12],0.37 ± 0.054
same,Blood glucose at sacrifice,[3]; [16],112 ± 9.14
same,Kidney Weight,[3]; [16],0.242 ± 0.027
same,α-sma expression (confocal microscopy),"[4]; Examples 4 and 5, FIGS. 4a and 5, high glucose 30 mM, Ramipril 10 μM, listed as ACE inhibitors",do not block; also recorded: do not reduce
same,ug urine albumin 24 h,[5]; [12],388.79 ± 79.78 µg
same,ug urine albumin 24 h,[5]; [16],128.54 ± 55.94 µg
same,accumulation of lysine 63 ubiquitinated proteins (confocal microscopy),[7]; [14],do not reduce
"OC[C@H]1O[C@@H](c2ccc(Cl)c(Cc3ccc(O[C@H]4CCOC4)cc3)c2)[C@H](O)[C@@H](O)[C@@H]1O [SGLT2 receptor inhibitors, Empaglifozin]",α-sma expression (confocal microscopy),[4]; [13],partially reduce
same,accumulation of lysine 63 ubiquitinated proteins (confocal microscopy),[7]; [15],do not reduce
